Each block holds one compound with its values, some of them ahead of it. The source made the active and inactive calls.
Columns and labels:
Insulin-degrading enzyme = target: T1, Insulin-degrading enzyme (Homo sapiens, UniProt P14735); assay: Dose Response: Fluorescence polarization-based cell-based high throughput dose response assay for inhibitors of insulin-degrading enzyme (IDE). [Related pubchem assays: 434962 (Primary screen (IDE inhibitors in singlicate)), 449730 (Counterscreen (Cytotoxicity in triplicate)), 435028 (Confirmation (IDE inhibitors in triplicate)), 434984 (Summary …; format: functional
T1 sequence (P14735 whole entry): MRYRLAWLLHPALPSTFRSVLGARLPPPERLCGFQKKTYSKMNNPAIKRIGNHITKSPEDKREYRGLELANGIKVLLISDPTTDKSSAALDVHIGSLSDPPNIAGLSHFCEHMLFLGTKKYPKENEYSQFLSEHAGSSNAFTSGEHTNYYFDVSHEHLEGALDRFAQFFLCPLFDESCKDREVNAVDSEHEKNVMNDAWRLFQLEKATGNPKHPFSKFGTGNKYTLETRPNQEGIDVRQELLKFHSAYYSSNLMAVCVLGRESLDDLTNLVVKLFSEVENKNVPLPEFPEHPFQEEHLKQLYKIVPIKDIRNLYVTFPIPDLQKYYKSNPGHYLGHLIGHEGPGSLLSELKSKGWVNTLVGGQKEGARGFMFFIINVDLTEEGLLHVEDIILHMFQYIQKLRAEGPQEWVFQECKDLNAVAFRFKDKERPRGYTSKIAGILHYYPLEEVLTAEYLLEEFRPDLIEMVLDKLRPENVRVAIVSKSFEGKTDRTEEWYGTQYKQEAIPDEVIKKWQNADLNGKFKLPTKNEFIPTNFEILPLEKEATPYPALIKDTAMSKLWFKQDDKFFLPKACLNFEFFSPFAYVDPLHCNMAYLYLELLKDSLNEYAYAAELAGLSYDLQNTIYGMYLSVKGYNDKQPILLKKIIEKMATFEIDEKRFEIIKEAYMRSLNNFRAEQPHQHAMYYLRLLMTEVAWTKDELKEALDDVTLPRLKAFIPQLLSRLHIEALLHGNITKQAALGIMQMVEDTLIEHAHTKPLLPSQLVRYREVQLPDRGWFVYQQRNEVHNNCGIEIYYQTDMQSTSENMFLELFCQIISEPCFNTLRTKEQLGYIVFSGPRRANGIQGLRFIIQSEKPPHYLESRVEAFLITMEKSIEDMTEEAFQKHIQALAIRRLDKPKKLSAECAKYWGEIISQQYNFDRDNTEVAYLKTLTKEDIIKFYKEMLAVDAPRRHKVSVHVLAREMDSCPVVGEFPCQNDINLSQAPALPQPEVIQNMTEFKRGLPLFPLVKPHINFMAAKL

[1] = Counterscreen for IDE inhibitors: Luminescence-based cell-based high throughput dose response assay to identify compounds that are cytotoxic to HEK cells. [Related pubchem assays: 434962 (Primary screen (IDE inhibitors in singlicate)), 449730 (Counterscreen (Cytotoxicity in triplicate)), 435028 (Confirmation (IDE inhibitors in triplicate)) …; format: functional; conditions: HEK293
[2] = target: G-protein coupled receptor 55 (Homo sapiens, UniProt Q9Y2T6); assay: inhibition of LPI-stimulated GPR55 beta-arrestin translocation – imaging, U2OS, beta-arrestin-GFP, LPI agonist, primary screen (AID 2013); format: functional;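 further: antagonist potency measured as reduced agonist-driven arrestin aggregation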
[3] = target: T2, Ubiquitin-conjugating enzyme E2 N (Homo sapiens, UniProt P61088); format: functional
T2 sequence (P61088 whole entry): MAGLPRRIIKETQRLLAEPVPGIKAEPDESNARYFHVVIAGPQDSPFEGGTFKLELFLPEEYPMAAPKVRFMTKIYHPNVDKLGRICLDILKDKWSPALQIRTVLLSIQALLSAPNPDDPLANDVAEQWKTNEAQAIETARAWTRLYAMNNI

Bcl-2-related protein A1 = target: T3, Bcl-2-related protein A1 (Mus musculus, UniProt Q07440); format: functional;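 further: confirmatory dose–response counterscreen on Bfl-1, used to check hits from a UBC13 polyubiquitin inhibitor campaign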
T3 sequence (Q07440 whole entry): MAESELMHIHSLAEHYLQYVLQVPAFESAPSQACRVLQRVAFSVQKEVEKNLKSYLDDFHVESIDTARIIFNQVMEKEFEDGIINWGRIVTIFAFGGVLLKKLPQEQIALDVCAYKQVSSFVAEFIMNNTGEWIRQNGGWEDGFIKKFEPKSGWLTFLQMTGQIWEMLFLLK

[4] = target: T2, Ubiquitin-conjugating enzyme E2 N; format: functional; remark: listed apart in the source
[5] = target: T4, Voltage-gated N-type calcium channel alpha-1B subunit/Amyloid beta A4 precursor protein-binding family A member 1 (Homo sapiens, UniProt Q00975+Q02410); assay: disruptors of Mint-PDZ/N-type channel peptide interaction – biochemical, HTRF, set 2, SAR follow-up (AID 434980); format: functional
[6] = target: T4, Voltage-gated N-type calcium channel alpha-1B subunit/Amyloid beta A4 precursor protein-binding family A member 1; assay: disruptors of Mint-PDZ/N-type channel peptide interaction – biochemical, HTRF, SAR follow-up (AID 2489); format: functional
Troponin, cardiac muscle = Troponin, cardiac muscle (Homo sapiens, UniProt P19429+P45379+P63316); assay: Fluorescence-based biochemical high throughput dose response assay for activators of the calcium sensitivity of cardiac Regulated Thin Filaments (RTF). [Related pubchem assays (depositor defined):AID493008, AID493018, AID504382, AID504383]; format: protein-complex assay
[7] = CCR5-tropic HIV-1 fusion blockers – cell-based, CCR5-tropic Env, dose response (AID 2279); format: functional
SUMO-activating enzyme [8] = target: T5, SUMO-activating enzyme (Homo sapiens, UniProt Q9UBT2); assay: blockers of UBC9-mediated SUMO conjugation – biochemical, AlphaScreen, SUMOylation inhibitor project, confirmation (AID 2018); format: functional
SUMO-activating enzyme [9] = target: T5, SUMO-activating enzyme; assay: blockers of SAE1/SAE2–UBC9 SUMO transfer – biochemical, HTRF, uHTS, primary screen (AID 2006); format: protein-complex assay

T4 sequence (Q00975 whole entry): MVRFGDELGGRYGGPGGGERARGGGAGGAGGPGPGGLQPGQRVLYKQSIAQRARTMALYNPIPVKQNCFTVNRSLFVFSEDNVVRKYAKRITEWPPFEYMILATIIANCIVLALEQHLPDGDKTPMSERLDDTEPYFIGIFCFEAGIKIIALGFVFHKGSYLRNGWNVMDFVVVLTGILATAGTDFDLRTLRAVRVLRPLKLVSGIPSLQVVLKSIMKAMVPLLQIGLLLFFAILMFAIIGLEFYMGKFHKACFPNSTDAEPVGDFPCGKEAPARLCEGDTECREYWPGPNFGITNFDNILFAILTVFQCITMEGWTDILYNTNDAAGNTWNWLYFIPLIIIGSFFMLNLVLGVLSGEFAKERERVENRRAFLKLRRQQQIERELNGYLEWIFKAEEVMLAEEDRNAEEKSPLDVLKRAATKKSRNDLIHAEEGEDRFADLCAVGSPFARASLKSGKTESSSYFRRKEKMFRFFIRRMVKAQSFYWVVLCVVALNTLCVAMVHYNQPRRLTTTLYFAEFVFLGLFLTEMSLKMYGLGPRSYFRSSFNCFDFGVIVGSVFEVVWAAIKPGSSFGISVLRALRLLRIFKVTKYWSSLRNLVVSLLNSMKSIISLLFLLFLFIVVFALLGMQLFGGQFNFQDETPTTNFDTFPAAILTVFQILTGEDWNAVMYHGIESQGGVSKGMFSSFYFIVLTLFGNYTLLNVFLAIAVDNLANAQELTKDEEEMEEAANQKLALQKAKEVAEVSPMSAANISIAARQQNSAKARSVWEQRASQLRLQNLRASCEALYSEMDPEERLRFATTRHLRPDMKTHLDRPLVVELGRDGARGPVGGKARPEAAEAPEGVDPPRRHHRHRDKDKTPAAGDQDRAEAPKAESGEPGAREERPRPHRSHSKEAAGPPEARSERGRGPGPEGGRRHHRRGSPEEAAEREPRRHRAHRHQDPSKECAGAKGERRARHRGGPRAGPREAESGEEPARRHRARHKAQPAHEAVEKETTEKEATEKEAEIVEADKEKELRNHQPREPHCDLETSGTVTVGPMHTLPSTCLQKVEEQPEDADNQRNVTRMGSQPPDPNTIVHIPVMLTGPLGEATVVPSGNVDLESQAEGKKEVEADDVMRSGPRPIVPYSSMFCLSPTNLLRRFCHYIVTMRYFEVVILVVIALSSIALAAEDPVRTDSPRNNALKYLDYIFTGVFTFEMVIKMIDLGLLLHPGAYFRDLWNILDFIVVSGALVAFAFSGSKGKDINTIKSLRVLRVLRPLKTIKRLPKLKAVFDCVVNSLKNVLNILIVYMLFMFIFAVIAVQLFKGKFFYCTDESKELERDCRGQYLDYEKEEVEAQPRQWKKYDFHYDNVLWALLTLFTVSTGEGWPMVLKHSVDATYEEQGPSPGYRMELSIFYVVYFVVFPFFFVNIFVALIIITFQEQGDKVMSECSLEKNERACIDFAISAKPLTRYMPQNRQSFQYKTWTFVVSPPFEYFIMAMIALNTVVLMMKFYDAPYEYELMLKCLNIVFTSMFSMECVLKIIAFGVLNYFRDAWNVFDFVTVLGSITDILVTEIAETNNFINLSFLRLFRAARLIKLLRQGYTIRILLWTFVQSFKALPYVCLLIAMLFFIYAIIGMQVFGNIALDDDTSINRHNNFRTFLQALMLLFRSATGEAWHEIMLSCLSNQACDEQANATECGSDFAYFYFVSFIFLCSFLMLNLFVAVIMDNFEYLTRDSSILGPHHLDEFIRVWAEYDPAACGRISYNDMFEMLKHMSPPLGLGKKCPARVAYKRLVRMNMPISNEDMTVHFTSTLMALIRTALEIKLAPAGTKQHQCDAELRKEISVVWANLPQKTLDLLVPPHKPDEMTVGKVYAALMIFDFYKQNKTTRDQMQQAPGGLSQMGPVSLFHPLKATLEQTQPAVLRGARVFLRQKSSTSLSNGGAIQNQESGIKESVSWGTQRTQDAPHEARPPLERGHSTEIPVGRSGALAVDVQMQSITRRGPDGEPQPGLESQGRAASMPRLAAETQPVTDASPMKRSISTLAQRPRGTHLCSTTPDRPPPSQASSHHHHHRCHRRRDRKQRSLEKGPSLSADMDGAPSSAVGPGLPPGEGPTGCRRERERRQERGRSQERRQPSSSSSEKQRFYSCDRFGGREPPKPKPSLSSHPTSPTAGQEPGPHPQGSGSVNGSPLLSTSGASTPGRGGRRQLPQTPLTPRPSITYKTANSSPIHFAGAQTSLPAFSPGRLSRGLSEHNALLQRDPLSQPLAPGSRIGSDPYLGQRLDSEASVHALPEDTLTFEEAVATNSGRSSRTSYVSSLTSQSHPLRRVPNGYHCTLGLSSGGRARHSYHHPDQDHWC
T4 sequence (Q02410 whole entry): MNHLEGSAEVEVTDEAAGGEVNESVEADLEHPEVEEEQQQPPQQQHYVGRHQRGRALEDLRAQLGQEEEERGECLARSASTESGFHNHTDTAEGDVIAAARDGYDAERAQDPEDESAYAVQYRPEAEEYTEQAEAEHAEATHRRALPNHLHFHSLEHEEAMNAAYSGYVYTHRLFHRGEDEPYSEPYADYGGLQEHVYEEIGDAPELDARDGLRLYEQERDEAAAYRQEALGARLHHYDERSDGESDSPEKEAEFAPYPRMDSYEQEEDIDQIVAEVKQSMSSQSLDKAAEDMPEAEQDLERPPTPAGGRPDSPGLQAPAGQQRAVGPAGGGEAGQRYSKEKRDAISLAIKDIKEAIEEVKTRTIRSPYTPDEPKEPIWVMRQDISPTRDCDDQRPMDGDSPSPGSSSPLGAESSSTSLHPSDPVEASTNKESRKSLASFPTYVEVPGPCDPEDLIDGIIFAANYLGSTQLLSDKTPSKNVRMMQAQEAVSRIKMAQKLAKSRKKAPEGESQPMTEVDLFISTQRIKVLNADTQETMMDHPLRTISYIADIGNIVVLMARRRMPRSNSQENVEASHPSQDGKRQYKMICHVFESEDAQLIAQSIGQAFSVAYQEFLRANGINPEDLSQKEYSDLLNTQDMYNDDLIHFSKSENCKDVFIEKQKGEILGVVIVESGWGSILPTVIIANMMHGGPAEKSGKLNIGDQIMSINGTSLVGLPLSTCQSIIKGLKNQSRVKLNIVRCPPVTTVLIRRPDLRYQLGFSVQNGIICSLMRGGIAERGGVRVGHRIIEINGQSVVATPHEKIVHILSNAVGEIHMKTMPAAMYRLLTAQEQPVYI
T5 sequence (Q9UBE0 whole entry): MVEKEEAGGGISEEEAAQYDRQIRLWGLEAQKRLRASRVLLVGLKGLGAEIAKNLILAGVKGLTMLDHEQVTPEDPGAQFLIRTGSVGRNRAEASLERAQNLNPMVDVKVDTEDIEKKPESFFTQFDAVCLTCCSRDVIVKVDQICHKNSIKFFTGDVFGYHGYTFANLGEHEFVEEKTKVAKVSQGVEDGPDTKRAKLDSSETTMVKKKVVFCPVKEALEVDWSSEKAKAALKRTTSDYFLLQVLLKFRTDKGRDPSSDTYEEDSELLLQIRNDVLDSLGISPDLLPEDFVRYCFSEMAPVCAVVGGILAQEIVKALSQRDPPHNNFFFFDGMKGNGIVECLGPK
T5 sequence (Q9UBT2 whole entry): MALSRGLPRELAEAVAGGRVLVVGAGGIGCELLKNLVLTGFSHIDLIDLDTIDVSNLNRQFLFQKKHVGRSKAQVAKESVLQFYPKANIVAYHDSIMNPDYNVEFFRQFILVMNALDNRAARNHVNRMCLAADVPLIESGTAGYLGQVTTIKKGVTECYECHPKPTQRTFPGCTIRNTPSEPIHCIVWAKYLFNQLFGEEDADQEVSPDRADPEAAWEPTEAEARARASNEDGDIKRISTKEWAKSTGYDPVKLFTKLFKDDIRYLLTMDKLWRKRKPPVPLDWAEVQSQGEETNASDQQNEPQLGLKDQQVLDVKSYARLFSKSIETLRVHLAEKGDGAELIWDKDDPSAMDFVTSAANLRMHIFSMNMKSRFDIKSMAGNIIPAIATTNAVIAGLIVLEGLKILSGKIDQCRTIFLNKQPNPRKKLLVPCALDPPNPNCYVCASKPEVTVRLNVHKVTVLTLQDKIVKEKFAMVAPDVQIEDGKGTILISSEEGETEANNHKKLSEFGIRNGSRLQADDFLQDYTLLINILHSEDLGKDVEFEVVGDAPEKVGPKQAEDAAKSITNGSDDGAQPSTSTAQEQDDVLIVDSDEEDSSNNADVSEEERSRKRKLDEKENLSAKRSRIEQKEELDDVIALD
G-protein coupled receptor 55, sequence (Q9Y2T6 whole entry): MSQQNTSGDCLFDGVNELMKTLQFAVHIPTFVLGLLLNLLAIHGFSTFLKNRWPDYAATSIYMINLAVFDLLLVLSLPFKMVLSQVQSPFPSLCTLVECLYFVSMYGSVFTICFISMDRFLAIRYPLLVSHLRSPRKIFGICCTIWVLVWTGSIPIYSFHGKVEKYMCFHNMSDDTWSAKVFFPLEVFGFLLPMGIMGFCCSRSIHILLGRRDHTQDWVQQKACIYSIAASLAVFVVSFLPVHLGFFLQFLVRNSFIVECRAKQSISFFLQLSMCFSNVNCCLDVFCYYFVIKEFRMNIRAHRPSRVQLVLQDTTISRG

IC50 [2]: 4.57 µM (active)
SMILES: O=C(/C=C/c1ccco1)NC(=S)Nc1ccccc1N1CCOCC1

IC50 [5]: > 56.8 µM (inactive) | IC50 [6]: > 56.8 µM (inactive)
SMILES: CC(=O)Oc1ccc(N2C(=O)C3C4C=CC(CC4)C3C2=O)cc1 (stereo not given)

EC50 (Troponin, cardiac muscle): > 71.4 µM (inactive)
SMILES: CCn1cc(C(=O)NCCC(=O)NCCO)c(=O)c2cc3c(cc21)OCO3

EC50 (Troponin, cardiac muscle): 0.191 µM (active)
SMILES: CCN(CC)c1ccc(/C=c2\sc3nnc(-c4ccccc4Cl)n3c2=O)cc1

The remaining lines, values behind:

SMILES: COc1ccccc1N1CCN(C(=O)c2cc(N3C(=O)C4C5CCC(C5)C4C3=O)ccc2Cl)CC1 (stereo not given)
IC50 (Insulin-degrading enzyme): > 55.9 µM (not active) | IC50 [1]: 27.8 µM (not active)

SMILES: O=C(CCNC(=O)c1ccccc1Cl)Nc1nc2ccccc2s1
IC50 [3]: 8.02 µM (active) | IC50 (Bcl-2-related protein A1): > 20 µM (inactive) | IC50 [4]: 6.15 µM (active)

SMILES: Cc1ccc(Nc2cnn(C34CC5CC(CC(CC(=O)O)(C5)C3)C4)c(=O)c2Cl)cc1C
IC50 (Insulin-degrading enzyme): 18.8 µM (not active) | IC50 [1]: > 55.7 µM (not active)

SMILES: CCOC(=O)C1=C(C)N=c2s/c(=C\c3ccc(OCC(=O)O)cc3)c(=O)n2C1c1ccc(OC(C)C)cc1 (stereo not given)
IC50 [7]: 35.2 µM (active) | IC50 (SUMO-activating enzyme [8]): 10.1 µM (active) | IC50 (SUMO-activating enzyme [9]): 26 µM (active)
